Assay results published in US4153710A, “N-(4-[2-(pyrazole-1-carbonamide)-ethyl]-benzenesulphonyl)-urea” (Starogardzkie Zaklady Farmaceutyczne POLFA, priority 1976, dated 1979).

Tests used:
[1] = test system: blood-glucose concentration; assay: Blood-glucose time course up to 24 hours in rats (Table 3); assay type: in vivo; settings: for glucose concentration in blood, average: oral 4 mg/kg
Protocol: (§1) The hypoglycemic activity of N-{4-[2-(pyrazole-1-carbonamide)-ethyl]-benzenesulphonyl}-ureas prepared according to the present invention can be noticed after their oral administration to mice, rats, rabbits and people and when determining the glucose concentration in blood with a known enzymatic method using glucose oxidase.
(§2) (Table 2). […] It has been observed that even 9 hours after the administration of one dose of SPC-5002 to rats, the glucose level in blood was decreased, whereas in the case of Glibornuride the glucose level comes back to its normal value in 6 hours from the time of the administration.
The comparison of SPC-5002 and Glibornuride effect on changes in
concentration of rats in time up to 24 hours from the moment of the
in an oral dose containing 4 mg/kg body weight

[2] = test system: calcium transmission in mitochondria of a rat's liver; assay: Calcium transmission to rat liver mitochondria; assay type: biochemical; settings: for % of inhibition, calcium transmission: medium with CaCl 300 nmoles/ml
Protocol: Sucrose 170mM, KCl 10 mM, MgCl2 […], K2 HPO 5 mM, EGTA 0.01 mM
2-oxoglutaran 2 mM, ADP 1 mM, mitochondria
protein 4 mg/m. Temperature 25° C.
of hydrogen ion consumption. The calcium transmission to mitochondria was
studied with two methods; in a continuous way with a Radiometer calcium
electrode type F2112 or with an isotopic method.
*The medium contained Ca Cl 300 nmoles/ml.

[3] = test system: blood-glucose concentration; assay: Hypoglycemic activity in three animal species versus Glibornuride; assay type: in vivo, mice, rats, rabbits; settings: parenteral and oral
Protocol: as §1, §2

[4] = test system: insulin concentration; assay: Insulin in normal men after a meal (Table 8); assay type: in vivo; settings: for Insulin concentration: normal men, meal, oral 10 mg
Protocol: When administered to normal men volunteers it has been stated that 60 minutes after the administration of SPC-5002 a 5 mg oral dose causes the decrease in blood-glucose of 28% in comparision to the starting value and after 90 minutes it reaches 33% (Table 7). Whereas Glibornuride employed in a dose 2.5 times as big on peak of its activity decreases the glucose blood level only of 19%. It can clearly be noticed that there is a positive correlation between the glycemic and insulin level curves. Both examined preparations cause a significant decrease in free fatty acids in blood. […] 60 and 90 minutes after the SPC-5002 administration, the blood-glycose level is decreased to 33 and 52% while in the Placebo group it is maintained in the range of 13-14%.
The comparison of glucose concentration changes in voluntary-normal men
eaten a meal and the oral administration of 10 mg of SPC-5002 or Placebo

## Cc1ccn(C(=O)NCCc2ccc(S(=O)(=O)NC(=O)NC3CCCCC3)cc2)n1 [SPC-5002, N-{4-[2-(3-methylpyrazole-1-carbonamide)-ethyl]-benzenesulphonyl}-N'-cyclohexylourea]
[1]; one dose
  duration of decreased blood glucose after one dose: ≥ 9 h
  duration of hypoglycemic activity relative to Glibornuride: longer hypoglycemic activity than the administration of Glibornuride
[1]; 0 h
  glucose concentration in blood, average: 82 mg/100 cc
[1]; 1 h
  glucose concentration in blood, average: 58 mg/100 cc
[1]; 3 h
  glucose concentration in blood, average: 45 mg/100 cc
[1]; 6 h
  glucose concentration in blood, average: 65 mg/100 cc
[1]; 9 h
  glucose concentration in blood, average: 70 mg/100 cc
[1]; 24 h
  glucose concentration in blood, average: 85 mg/100 cc
[2]; concentration 0.05 n M
  % of inhibition, calcium transmission: 8%
[2]; concentration 0.1 n M
  Calcium transmission / Oxide consumption (ratio of inhibition): 1.75
  % of inhibition, calcium transmission: 21%
[2]; concentration 0.3 n M
  Calcium transmission / Oxide consumption (ratio of inhibition): 1.42
  % of inhibition, calcium transmission: 30%
[2]; concentration 0.5 n M
  Calcium transmission / Oxide consumption (ratio of inhibition): 1.55
  % of inhibition, calcium transmission: 53%
[2]; concentration 1.0 n M
  Calcium transmission / Oxide consumption (ratio of inhibition): 0.99
  % of inhibition, calcium transmission: 68%
[2]; rat liver mitochondria
  Ki: 450 µM
  preference of inhibition: calcium transmission versus oxidizing processes: preferential inhibiting of calcium transmission
[2]; ratio of inhibitor constants
  Ki ratio SPC-5002 / Glibenclamide, calcium transmission: 10
[3]
  hypoglycemic activity relative to Glibornuride: about twice as active as Glibornuride
[4]; normal men after meal, 60 minutes
  insulin concentration relative to placebo group: twice as high as that in the placebo group
[4]; 0 mins (empty stomach)
  Insulin concentration: 7 μU/cc
[4]; 30 mins
  Insulin concentration: 50 μU/cc
[4]; 60 mins
  Insulin concentration: 55 μU/cc
[4]; 90 mins
  Insulin concentration: 17 μU/cc
[4]; 120 mins
  Insulin concentration: 8 μU/cc
[4]; 180 mins
  Insulin concentration: 8 μU/cc
